In US8586613B2, “Pyridinium and quinolinium derivatives” (Universidad de Granada, priority 2004, dated 2013):
Read-outs that look alike come from different tables or passages of the source.

Tests used:
Human ChoK = molecular target: T1, Human ChoK (Homo sapiens, UniProt P35790); experiment: Ex vivo assay of the activity of human ChoK (recombinant choline kinase expressed in E. coli); assay type: biochemical
T1 construct: made in house; host or cells: E. coli
Protocol: Recombinant choline kinase expressed in E. coli in the buffer assay (100 mM Tris-HCl pH 8.0, 100 mM MgCl2, 10 mM ATP and 200 μM of choline in the presence of methyl[^14C]-choline chloride (50-60 μCi/mmol)) was used for the ex vivo assays. […] The samples were washed with diethyl ether saturated with water and were lyophilized. The hydrophilic choline derivatives were resolved in thin layer chromatography plates according to a described process [Ramírez, A., Penalva, V., Lucas, L., Lacal, J. C.

HT-29 cells = experiment: HT-29 cell proliferation assay (Crystal Violet); assay type: cell-based, human; conditions: six days of treatment
Protocol: The HT-29 cells were seeded in 24-well plates (35×10^3 cells/well) and were incubated for 24 hours. Then the cells were treated with different concentrations of ChoK inhibitors in the usual culture medium. Three days later, the wells were aspirated and both fresh medium and more amount of drug were added, and the cells were maintained for three more days. The quantification of the remaining cells in each well was carried out by means of the Crystal Violet method [Gillies, R. J., Didier, N., Denton, M. Anal. Biochem. 159, 109-113 (1986)], with some modifications [Hernández-Alcoceba, R., Saniger, L., Campos, J., Núñez, M. C., Khaless, F., Gallo, M. Á., Espinosa, A., Lacal, J. C. Oncogene, 15, 2289-2301 (1997)]. Briefly, the cells were washed with TD buffer and fixed with 1% glutaraldehyde for 15 minutes. After washing again with TD, the cell nuclei were coloured with 0.1% Crystal Violet for at least 30 minutes and washed three times with distilled water. The adsorbed colouring was resuspended in 10% acetic acid and the absorbance at 595 nm was determined in a spectrometer. […] This value determined by iterative curve adjustment. Two values are determined for each point of the curve, the experiment was repeated two or three times and the mean values were estimated. In the few cases in which the two values differed more than 50%, a third experiment was carried out to determine the real value. The IC50 value as a potency measurement is used to relate the biological activity of the compounds with their chemical structure.

[1] = recombinant human ChoK, 37° C., 30 minutes

T1 sequence (P35790 whole entry): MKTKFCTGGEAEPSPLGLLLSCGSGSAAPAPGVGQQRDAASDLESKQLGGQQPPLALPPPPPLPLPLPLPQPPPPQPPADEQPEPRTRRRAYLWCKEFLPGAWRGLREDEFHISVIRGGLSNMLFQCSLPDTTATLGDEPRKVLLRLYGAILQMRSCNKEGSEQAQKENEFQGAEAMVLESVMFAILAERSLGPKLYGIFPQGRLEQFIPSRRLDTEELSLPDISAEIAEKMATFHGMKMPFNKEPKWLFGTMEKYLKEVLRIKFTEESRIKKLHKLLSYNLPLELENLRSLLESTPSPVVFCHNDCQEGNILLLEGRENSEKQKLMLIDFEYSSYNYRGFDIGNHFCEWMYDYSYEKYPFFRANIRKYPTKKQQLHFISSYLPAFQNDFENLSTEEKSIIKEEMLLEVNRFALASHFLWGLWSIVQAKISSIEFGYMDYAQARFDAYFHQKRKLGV

Molecule	IC50 (Human ChoK; [1]) [µM]	IC50 (HT-29 cells) [µM]	IC50 (HT-29 cells; Homo sapiens, 144 h) [µM]	IC50 (Human ChoK) [µM]
1,1′-(benzene-1,3-diylmethylene)bis[4-(4-chloro-N-methylanilino)pyridinium]dibromide [Compound 1]	5.7	3.3	–	–
1,1′-(biphenyl-3,3′-diylmethylene)bis[4-(3,5-dichloro-N-methylanilino)pyridinium]dibromide [Compound 4]	–	1.8	–	–
CN(c1ccccc1)c1cc[n+](Cc2cccc(-c3cccc(C[n+]4ccc(N(C)c5ccccc5)cc4)c3)c2)cc1.[Br-].[Br-] [Compound 2, 1,1′-(biphenyl-3,3′-diylmethylene)bis[4-(N-methylanilino)pyridinium]dibromide]	0.42	2.2	–	–
CN(c1ccc(Cl)cc1)c1cc[n+](Cc2cccc(-c3cccc(C[n+]4ccc(N(C)c5ccc(Cl)cc5)c5ccccc54)c3)c2)c2ccccc12.[Br-].[Br-] [Compound 5, 1,1′-(biphenyl-3,3′-diylmethylene)bis[4-(4-chloro-N-methylanilino)quinolinium]dibromide]	–	1.6	–	–
CN(c1ccc(Cl)cc1)c1cc[n+](Cc2cccc(-c3cccc(C[n+]4ccc(N(C)c5ccc(Cl)cc5)c5ccc(Cl)cc54)c3)c2)c2cc(Cl)ccc12 [Compound 6, 1,1′-(biphenyl-3,3′-diylmethylene)bis[4-(4-chloro-N-methylanilino)-7-chloroquinolinium]dibromide]	5.7	–	1.9	–
CN(c1ccc(Cl)cc1)c1cc[n+](Cc2ccc(-c3ccc(C[n+]4ccc(N(C)c5ccc(Cl)cc5)c5ccc(Cl)cc54)cc3)cc2)c2cc(Cl)ccc12 [Compound 8, 1,1′-(biphenyl-4,4′-diylmethylene)bis[4-(4-chloro-N-methylanilino)-7-chloroquinolinium]dibromide]	11.4	–	1.2	–
CN(c1ccc(Cl)cc1)c1cc[n+](Cc2ccc(CCc3ccc(C[n+]4ccc(N(C)c5ccc(Cl)cc5)c5ccccc54)cc3)cc2)c2ccccc12 [Compound 9, 1,1′-[ethylenebis(benzene-1,4-diylmethylene)]bis[4-(4-chloro-N-methylanilino)quinolinium]dibromide]	4.8	–	0.7	–
CN(c1ccc(Cl)cc1)c1cc[n+](Cc2ccc(CCc3ccc(C[n+]4ccc(N(C)c5ccc(Cl)cc5)c5ccc(Cl)cc54)cc3)cc2)c2cc(Cl)ccc12 [Compound 10, 1,1′-[ethylenebis(benzene-1,4-diylmethylene)]bis[4-(4-chloro-N-methylanilino)-7-chloroquinolinium]dibromide]	5.7	–	0.8	–
c1cc(C[n+]2ccc(N3CCCC3)cc2)cc(-c2cccc(C[n+]3ccc(N4CCCC4)cc3)c2)c1 [EC1, reference compound]	5.8	–	–	–
c1cc(C[n+]2ccc(N3CCCCC3)cc2)cc(-c2cccc(C[n+]3ccc(N4CCCCC4)cc3)c2)c1 [EC2, reference compound]	–	–	1.6	1.9
CN(C)c1cc[n+](Cc2cccc(-c3cccc(C[n+]4ccc(N(C)C)c5ccc(Cl)cc54)c3)c2)c2cc(Cl)ccc12 [EC3, reference compound]	9.6	–	0.7	–
Clc1ccc2c(N3CCCC3)cc[n+](Cc3cccc(-c4cccc(C[n+]5ccc(N6CCCC6)c6ccc(Cl)cc65)c4)c3)c2c1 [EC4, reference compound]	1.2	–	0.4	–
Clc1ccc2c(N3CCCC3)cc[n+](Cc3ccc(CCc4ccc(C[n+]5ccc(N6CCCC6)c6ccc(Cl)cc65)cc4)cc3)c2c1 [EC5, reference compound]	1	–	0.2	–
CN(C)c1cc[n+](Cc2ccc(CCCc3ccc(C[n+]4ccc(N(C)C)cc4)cc3)cc2)cc1 [EC6, reference compound]	22	–	2.5	–
